pIC50: −log10 of the molar value. Structures can show the parent of a compound that is named as a salt.
Assays:
NLRP3 [1] = target: T1, NLRP3 (Homo sapiens, UniProt Q96P20); experiment: Human whole blood IL1β release assay (LPS + nigericin, AlphaLisa IL-1β; HWB IC50); assay type: cell-based; set-up: Human whole blood in Li-heparin tubes was obtained from healthy donors from a volunteer donor panel; from tissue; host or cells: human whole blood from healthy donors; details: IL-1β release
Procedure: For systemic delivery, the ability to inhibit NLRP3 when the compounds are present within the bloodstream is of great importance. For this reason, the NLRP3 inhibitory activity of a number of compounds in human whole blood was investigated in accordance with the following protocol.
Human whole blood in Li-heparin tubes was obtained from healthy donors from a volunteer donor panel. • 1. Plate out 80 μl of whole blood containing 1 μg/ml of LPS in 96-well, clear bottom cell culture plate (Corning #3585) • 2. Add 10 μl compound (8 points half-log dilution with 10 μM top dose) or vehicle (DMSO 0.1% FAC) to the appropriate wells • 3. Incubate for 3 hrs at 37° C., 5% CO2 • 4. Add 10 μl nigericin (Sigma #N7143) (10 μM FAC) to all wells • 5. Incubate for 1 hr at 37° C., 5% CO2 • 6. At the end of the incubation period, spin plates at 300×g for 5 mins to pellet cells and remove 20 μl of supernatant and add to 96-well v-bottom plates for IL-1β analysis (note: these plates containing the supernatants can be stored at −80° C. to be analysed at a later date) • 7. IL-1β was measured according to the manufacturer protocol (Perkin Elmer-AlphaLisa IL-1 Kit AL220F-5000) • 8. IC50 data is fitted to a non-linear regression equation (log inhibitor vs response-variable slope 4-parameters)

NLRP3 [2] = target: T1, NLRP3; experiment: THP-1 cells pyroptosis assay (LPS + nigericin, resazurin readout; THP IC50); assay type: cell-based; set-up: Seed THP-1 cells (25,000 cells/well) containing 1.0 μg/ml LPS in 40 μl of RPMI medium; host or cells: THP-1 cells
How it was run: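 IC50 from 4-parameter fit of resazurin fluorescence (100 μM, 1-2 hrs), reflecting surviving cells after pyroptosis. LPS-primed (1 μg/ml) THP-1 cells in FBS-free RPMI got compound for 3 hrs at 37° C (top 10 μM, half-log, 8 points), then nigericin 5 μM for 1 hr.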

T1 sequence (Q96P20 whole entry): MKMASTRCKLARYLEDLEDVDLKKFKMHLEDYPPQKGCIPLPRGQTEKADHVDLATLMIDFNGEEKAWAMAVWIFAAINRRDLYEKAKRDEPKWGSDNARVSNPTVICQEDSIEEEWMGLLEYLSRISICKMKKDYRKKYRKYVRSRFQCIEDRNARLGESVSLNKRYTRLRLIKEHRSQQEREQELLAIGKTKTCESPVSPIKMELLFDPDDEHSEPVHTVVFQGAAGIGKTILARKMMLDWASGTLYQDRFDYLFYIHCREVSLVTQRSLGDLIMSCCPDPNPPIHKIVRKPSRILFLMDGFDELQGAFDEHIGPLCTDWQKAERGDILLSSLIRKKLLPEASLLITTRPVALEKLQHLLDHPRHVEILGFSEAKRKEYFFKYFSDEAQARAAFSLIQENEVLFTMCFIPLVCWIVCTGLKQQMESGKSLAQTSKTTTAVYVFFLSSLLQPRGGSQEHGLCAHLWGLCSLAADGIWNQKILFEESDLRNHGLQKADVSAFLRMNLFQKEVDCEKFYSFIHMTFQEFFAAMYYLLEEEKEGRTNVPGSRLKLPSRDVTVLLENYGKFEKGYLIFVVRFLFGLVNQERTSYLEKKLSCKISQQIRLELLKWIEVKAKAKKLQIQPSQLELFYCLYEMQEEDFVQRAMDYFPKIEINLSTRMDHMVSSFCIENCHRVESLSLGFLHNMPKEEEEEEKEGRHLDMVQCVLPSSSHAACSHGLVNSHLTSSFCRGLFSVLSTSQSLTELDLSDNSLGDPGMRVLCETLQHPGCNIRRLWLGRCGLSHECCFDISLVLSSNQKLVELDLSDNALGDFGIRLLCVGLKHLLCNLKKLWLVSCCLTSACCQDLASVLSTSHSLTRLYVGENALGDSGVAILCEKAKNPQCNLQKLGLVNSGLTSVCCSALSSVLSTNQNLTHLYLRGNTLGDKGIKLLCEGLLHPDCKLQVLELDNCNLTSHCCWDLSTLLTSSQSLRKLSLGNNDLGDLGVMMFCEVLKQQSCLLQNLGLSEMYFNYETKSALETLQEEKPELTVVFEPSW

Row | Compound | pIC50 (NLRP3 [1]) | pIC50 (NLRP3 [2])
1 | COc1cc(-c2cc(F)cc(C(C)C)c2NC(=O)NS(=O)(=O)c2ccn(C(C)C)n2)ccn1 [Example 12, N-((4-Fluoro-2-iso-propyl-6-(2-methoxypyridin-4-yl)phenyl)carbamoyl)-1-iso-propyl-1H-pyrazole-3-sulfonamide, partial ammonium salt] | ≥ 6.00 | ≥ 6.30
2 | CC(C)c1cc(F)cc(-c2ccnc(N)c2)c1NC(=O)NS(=O)(=O)c1ccn(C(C)C)n1 [Example 23, N-((2-(2-Aminopyridin-4-yl)-4-fluoro-6-isopropylphenyl)carbamoyl)-1-iso-propyl-1H-pyrazole-3-sulfonamide] | ≥ 6.00 | ≥ 6.30
3 | CCOc1cc(-c2cc(F)cc(C(C)C)c2NC(=O)NS(=O)(=O)c2ccn(C(C)C)n2)ccn1 [Example 24, N-((2-(2-Ethoxypyridin-4-yl)-4-fluoro-6-iso-propylphenyl)carbamoyl)-1-iso-propyl-1H-pyrazole-3-sulfonamide] | ≥ 6.00 | ≥ 6.30
4 | CC(C)Oc1cc(-c2cc(F)cc(C(C)C)c2NC(=O)NS(=O)(=O)c2ccn(C(C)C)n2)ccn1 [Example 27, N-((4-Fluoro-2-(2-isopropoxypyridin-4-yl)-6-iso-propyl-phenyl)carbamoyl)-1-iso-propyl-1H-pyrazole-3-sulfonamide] | ≥ 5.30 | ≥ 6.30
5 | CC(C)c1cc(F)cc(-c2cncnc2)c1NC(=O)NS(=O)(=O)c1cc(C(=O)N(C)C)n(C)n1 [Example 32, 3-(N-((4-Fluoro-2-iso-propyl-6-(pyrimidin-5-yl)phenyl)carbamoyl)sulfamoyl)-N,N,1-trimethyl-1H-pyrazole-5-carboxamide, sodium salt] | ≥ 6.30 | ≥ 6.30
6 | COC(C)(C)c1cc(S(=O)(=O)NC(=O)Nc2c(-c3cccnc3)cc(F)cc2C(C)C)nn1C [Example 35, N-((4-Fluoro-2-iso-propyl-6-(pyridin-3-yl)phenyl)carbamoyl)-5-(2-methoxypropan-2-yl)-1-methyl-1H-pyrazole-3-sulfonamide] | ≥ 6.00 | ≥ 6.30
7 | CC(C)c1cc(F)cc(-c2cccc(C#N)c2)c1NC(=O)NS(=O)(=O)c1cc(CN(C)C)n(C(C)C)n1 [Example 39, N-((3′-Cyano-5-fluoro-3-iso-propyl-[1,1′-biphenyl]-2-yl)carbamoyl)-5-((dimethylamino)methyl)-1-isopropyl-1H-pyrazole-3-sulfonamide] | ≥ 6.00 | ≥ 6.00
8 | CC(C)c1cc(F)cc(-c2ccccc2)c1NC(=O)NS(=O)(=O)c1cc(CN(C)C)n(C)n1 [Example 40, 5-((Dimethylamino)methyl)-N-((5-fluoro-3-iso-propyl-[1,1′-biphenyl]-2-yl)carbamoyl)-1-methyl-1H-pyrazole-3-sulfonamide] | ≥ 6.00 | ≥ 6.30
9 | CC(C)c1cc(F)cc(-c2cccnc2)c1NC(=O)NS(=O)(=O)c1cc(CN(C)C)n(C(C)C)n1 [Example 41, 5-((Dimethylamino)methyl)-N-((4-fluoro-2-iso-propyl-6-(pyridin-3-yl)phenyl)carbamoyl)-1-iso-propyl-1H-pyrazole-3-sulfonamide] | ≥ 6.00 | ≥ 6.30
10 | CCN1CCC(S(=O)(=O)NC(=O)Nc2c(-c3ccncc3)ccc3c2CCC3)CC1 [Example 101, 1-Ethyl-N-((5-(pyridin-4-yl)-2,3-dihydro-1H-inden-4-yl)carbamoyl)piperidine-4-sulfonamide, potassium salt] | ≥ 6.00 | 
11 | O=C(Nc1c(C2CCOCC2)ccc2c1CCC2)NS(=O)(=O)c1ccn(C2CC2)n1 [Example 254, 1-Cyclopropyl-N-((5-(tetrahydro-2H-pyran-4-yl)-2,3-dihydro-1H-inden-4-yl)carbamoyl)-1H-pyrazole-3-sulfonamide] |  | ≥ 5.30
12 | COc1cc(-c2ccc3c(c2NC(=O)NS(=O)(=O)OC(C)C)CCC3)ccn1 [Example 256, Isopropyl (5-(2-methoxypyridin-4-yl)-2,3-dihydro-1H-inden-4-yl)carbamoylsulfamate, sodium salt] |  | ≥ 6.00
13 | Cn1cc(-c2ccc3c(c2NC(=O)NS(=O)(=O)c2ccn(C4CC4)n2)CCC3)ccc1=O [Example 268, 1-Cyclopropyl-N-((5-(1-methyl-6-oxo-1,6-dihydropyridin-3-yl)-2,3-dihydro-1H-inden-4-yl)carbamoyl)-1H-pyrazole-3-sulfonamide] |  | ≥ 5.30
14 | Cn1ccc(-c2ccc3c(c2NC(=O)NS(=O)(=O)c2ccn(C4CC4)n2)CCC3)cc1=O [Example 272, 1-Cyclopropyl-N-((5-(1-methyl-2-oxo-1,2-dihydropyridin-4-yl)-2,3-dihydro-1H-inden-4-yl)carbamoyl)-1H-pyrazole-3-sulfonamide, sodium salt] |  | ≥ 5.30
15 | O=C(Nc1c2c(nn1-c1ccncc1)CCC2)NS(=O)(=O)c1ccn(C2CC2)n1 [Example 273, 1-Cyclopropyl-N-((2-(pyridin-4-yl)-2,4,5,6-tetrahydrocyclopenta[c]pyrazol-3-yl)carbamoyl)-1H-pyrazole-3-sulfonamide] |  | ≥ 5.30
16 | CC(C)n1ccc(S(=O)(=O)NC(=O)Nc2c(-c3ccnc4c3CCO4)ccc3c2CCC3)n1 [Example 283, N-((5-(2,3-Dihydrofuro[2,3-b]pyridin-4-yl)-2,3-dihydro-1H-inden-4-yl)carbamoyl)-1-isopropyl-1H-pyrazole-3-sulfonamide] |  | ≥ 5.30
17 | CC(=O)Nc1cc(-c2ccc3c(c2NC(=O)NS(=O)(=O)c2ccn(C(C)C)n2)CCC3)ccn1 [Example 297, N-(4-(4-(3-((1-Isopropyl-1H-pyrazol-3-yl)sulfonyl)ureido)-2,3-dihydro-1H-inden-5-yl)pyridin-2-yl)acetamide, sodium salt] |  | ≥ 6.00
18 | CC(C)n1ccc(S(=O)(=O)NC(=O)Nc2c(-c3ccnc(OC4CCN(C)C4)c3)ccc3c2CCC3)n1 (stereo not shown) [Example 301, 1-Isopropyl-N-((5-(2-((1-methylpyrrolidin-3-yl)oxy)pyridin-4-yl)-2,3-dihydro-1H-inden-4-yl)carbamoyl)-1H-pyrazole-3-sulfonamide, sodium salt] |  | ≥ 6.00
19 | CC(C)n1ccc(S(=O)(=O)NC(=O)Nc2c(-c3ccnc(OCCN(C)C)c3)ccc3c2CCC3)n1 [Example 302, N-((5-(2-(2-(Dimethylamino)ethoxy)pyridin-4-yl)-2,3-dihydro-1H-inden-4-yl)carbamoyl)-1-isopropyl-1H-pyrazole-3-sulfonamide, sodium salt] |  | ≥ 5.30
20 | COc1cc(-c2ccc3c(c2NC(=O)NS(=O)(=O)c2ccc(C(=O)N(C)C)cc2)CCO3)ccn1 [Example 309, 4-(N-((5-(2-Methoxypyridyl-4-yl)-2,3-dihydrobenzofuran-4-yl)carbamoyl)sulfamoyl)-N,N-dimethylbenzamide, sodium salt] |  | ≥ 5.30
21 | CC(C)c1cc(F)cc(-c2ccnc(C#N)c2)c1NC(=O)NS(=O)(=O)N1CC2CCN(C)C2C1 (stereo not shown) [Example 319, N-((2-(2-Cyanopyridin-4-yl)-4-fluoro-6-isopropylphenyl)carbamoyl)-1-methylhexahydropyrrolo[3,4-b]pyrrole-5(1H)-sulfonamide] |  | ≥ 5.00
22 | COc1cc(-n2nc3c(c2NC(=O)NS(=O)(=O)c2cc(C(C)(C)O)co2)CCC3)ccn1 [Example 322, 4-(2-Hydroxypropan-2-yl)-N-((2-(2-methoxypyridin-4-yl)-2,4,5,6-tetrahydrocyclopenta[c]pyrazol-3-yl)carbamoyl)furan-2-sulfonamide] |  | ≥ 5.30

— patent US20200361895A1, “NOVEL SULFONAMIDE CARBOXAMIDE COMPOUNDS” (Inflazome Limited, priority 2017, published 2020)
